According to the CheMixHub viscosity set:
± gives the uncertainty stated by the source.

Assay: xn = mol fraction of the nth substance listed

COC(C)=O + CC(C)O
298.15 K
Details | viscosity [mPa·s]
101 kPa, x2 = 0.0988 | 0.385 ± 0.006
101 kPa, x2 = 0.2003 | 0.416 ± 0.006
101 kPa, x2 = 0.3227 | 0.453 ± 0.006
101 kPa, x2 = 0.3967 | 0.484 ± 0.006
101 kPa, x2 = 0.4976 | 0.53 ± 0.007
101 kPa, x2 = 0.666 | 0.668 ± 0.007
101 kPa, x2 = 0.7895 | 0.933 ± 0.009
101 kPa, x2 = 0.7978 | 0.96 ± 0.009
101 kPa, x2 = 0.9011 | 1.37 ± 0.011
101.33 kPa, x1 = 0.0598 | 1.642 ± 0.054
101.33 kPa, x1 = 0.1684 | 1.101 ± 0.037
101.33 kPa, x1 = 0.2671 | 0.83 ± 0.029
101.33 kPa, x1 = 0.3634 | 0.671 ± 0.024
101.33 kPa, x1 = 0.4646 | 0.571 ± 0.021
101.33 kPa, x1 = 0.5621 | 0.504 ± 0.019
101.33 kPa, x1 = 0.6773 | 0.448 ± 0.017
101.33 kPa, x1 = 0.7619 | 0.417 ± 0.016
101.33 kPa, x1 = 0.866 | 0.394 ± 0.015

c1ccc2ncccc2c1 + Oc1ccccc1
Details | viscosity [mPa·s]
293.25 K, 101 kPa, x2 = 0.101 | 4.595 ± 0.047
293.25 K, 101 kPa, x2 = 0.1895 | 5.725 ± 0.061
293.25 K, 101 kPa, x2 = 0.2876 | 7.85 ± 0.09
293.25 K, 101 kPa, x2 = 0.3677 | 10.58 ± 0.13
293.25 K, 101 kPa, x2 = 0.4518 | 15.03 ± 0.2
293.25 K, 101 kPa, x2 = 0.5297 | 20.31 ± 0.29
293.25 K, 101 kPa, x2 = 0.6094 | 24.52 ± 0.4
293.25 K, 101 kPa, x2 = 0.6758 | 25.29 ± 0.42
293.25 K, 101 kPa, x2 = 0.7465 | 23.27 ± 0.38
293.25 K, 101 kPa, x2 = 0.8203 | 19.41 ± 0.24
293.25 K, 101 kPa, x2 = 0.8731 | 16.6 ± 0.25
293.25 K, 101 kPa, x2 = 0.9409 | 13.37 ± 0.19
298 K, 101.3 kPa, x1 = 0.1054 | 12.7 ± 0.24
298 K, 101.3 kPa, x1 = 0.1999 | 17.29 ± 0.4
298 K, 101.3 kPa, x1 = 0.3001 | 20.99 ± 0.54
298 K, 101.3 kPa, x1 = 0.4004 | 19.77 ± 0.49
298 K, 101.3 kPa, x1 = 0.4996 | 14.31 ± 0.31
298 K, 101.3 kPa, x1 = 0.5998 | 10.23 ± 0.17
298 K, 101.3 kPa, x1 = 0.6997 | 7.295 ± 0.088
298 K, 101.3 kPa, x1 = 0.7997 | 5.58 ± 0.047
298 K, 101.3 kPa, x1 = 0.9023 | 4.054 ± 0.042
303 K, 101.3 kPa, x1 = 0.1054 | 10.2 ± 0.16
303 K, 101.3 kPa, x1 = 0.1999 | 13.09 ± 0.26
303 K, 101.3 kPa, x1 = 0.3001 | 15.72 ± 0.36
303 K, 101.3 kPa, x1 = 0.4004 | 14.98 ± 0.33
303 K, 101.3 kPa, x1 = 0.4996 | 11.03 ± 0.19
303 K, 101.3 kPa, x1 = 0.5998 | 8.24 ± 0.11
303 K, 101.3 kPa, x1 = 0.6997 | 6.11 ± 0.056
303 K, 101.3 kPa, x1 = 0.7997 | 4.797 ± 0.043
303 K, 101.3 kPa, x1 = 0.9023 | 3.537 ± 0.031
303.05 K, 101 kPa, x2 = 0.104 | 3.645 ± 0.036
303.05 K, 101 kPa, x2 = 0.194 | 4.495 ± 0.045
303.05 K, 101 kPa, x2 = 0.2786 | 5.605 ± 0.059
303.05 K, 101 kPa, x2 = 0.3683 | 7.425 ± 0.08
303.05 K, 101 kPa, x2 = 0.4478 | 9.65 ± 0.11
303.05 K, 101 kPa, x2 = 0.5251 | 12.21 ± 0.15
303.05 K, 101 kPa, x2 = 0.6009 | 14.36 ± 0.19
303.05 K, 101 kPa, x2 = 0.672 | 14.8 ± 0.2
303.05 K, 101 kPa, x2 = 0.744 | 13.44 ± 0.18
303.05 K, 101 kPa, x2 = 0.8109 | 11.77 ± 0.12
303.05 K, 101 kPa, x2 = 0.8741 | 10.1 ± 0.13
303.05 K, 101 kPa, x2 = 0.9388 | 8.44 ± 0.1
308 K, 101.3 kPa, x1 = 0.1054 | 8.195 ± 0.11
308 K, 101.3 kPa, x1 = 0.1999 | 10.47 ± 0.17
308 K, 101.3 kPa, x1 = 0.3001 | 12.4 ± 0.23
308 K, 101.3 kPa, x1 = 0.4004 | 11.87 ± 0.21
308 K, 101.3 kPa, x1 = 0.4996 | 8.92 ± 0.12
308 K, 101.3 kPa, x1 = 0.5998 | 6.902 ± 0.072
308 K, 101.3 kPa, x1 = 0.6997 | 5.266 ± 0.042
308 K, 101.3 kPa, x1 = 0.7997 | 4.143 ± 0.037
308 K, 101.3 kPa, x1 = 0.9023 | 3.095 ± 0.027
313 K, 101.3 kPa, x1 = 0.1054 | 6.728 ± 0.07
313 K, 101.3 kPa, x1 = 0.1999 | 8.655 ± 0.11
313 K, 101.3 kPa, x1 = 0.3001 | 10.08 ± 0.15
313 K, 101.3 kPa, x1 = 0.4004 | 9.694 ± 0.14
313 K, 101.3 kPa, x1 = 0.4996 | 7.31 ± 0.086
313 K, 101.3 kPa, x1 = 0.5998 | 5.796 ± 0.052
313 K, 101.3 kPa, x1 = 0.6997 | 4.553 ± 0.039
313 K, 101.3 kPa, x1 = 0.7997 | 3.608 ± 0.031
313 K, 101.3 kPa, x1 = 0.9023 | 2.718 ± 0.024
313.15 K, 101 kPa, x2 = 0.104 | 2.885 ± 0.028
313.15 K, 101 kPa, x2 = 0.194 | 3.455 ± 0.033
313.15 K, 101 kPa, x2 = 0.2786 | 4.195 ± 0.041
313.15 K, 101 kPa, x2 = 0.3683 | 5.335 ± 0.053
313.15 K, 101 kPa, x2 = 0.4478 | 6.6 ± 0.07
313.15 K, 101 kPa, x2 = 0.5251 | 7.95 ± 0.08
313.15 K, 101 kPa, x2 = 0.6009 | 8.87 ± 0.09
313.15 K, 101 kPa, x2 = 0.672 | 9.04 ± 0.1
313.15 K, 101 kPa, x2 = 0.744 | 8.39 ± 0.09
313.15 K, 101 kPa, x2 = 0.8109 | 7.48 ± 0.08
313.15 K, 101 kPa, x2 = 0.8741 | 6.56 ± 0.07
313.15 K, 101 kPa, x2 = 0.9388 | 5.525 ± 0.058
318 K, 101.3 kPa, x1 = 0.1054 | 5.655 ± 0.053
318 K, 101.3 kPa, x1 = 0.1999 | 7.159 ± 0.087
318 K, 101.3 kPa, x1 = 0.3001 | 8.328 ± 0.12
318 K, 101.3 kPa, x1 = 0.4004 | 8.054 ± 0.12
318 K, 101.3 kPa, x1 = 0.4996 | 5.886 ± 0.054
318 K, 101.3 kPa, x1 = 0.5998 | 4.902 ± 0.047
318 K, 101.3 kPa, x1 = 0.6997 | 3.996 ± 0.034
318 K, 101.3 kPa, x1 = 0.7997 | 3.172 ± 0.028
318 K, 101.3 kPa, x1 = 0.9023 | 2.416 ± 0.019
